Experimental data taken from ChEMBL document CHEMBL1201862, “PubChem BioAssay data set” (2004).
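Exposure lasted 48 hours, with cells grown in 96-well plates and compounds tested at five concentrations. Abbreviation: GI50, concentration required for 50% inhibition of growth.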 Activity calls are given as the source filed them. Rule as the data show it: active = GI50 up to about 1.1 µM and inactive = higher.

How the values were obtained:
Experiment in all cases: NCI anticancer screen, dose series, 48 h
HCT-15 = tested on: HCT-15
UACC-257 = tested on: UACC-257
NCI-H522 = tested on: NCI-H522
TK-10 = tested on: TK-10
SW-620 = tested on: SW-620
Malme-3M = tested on: Malme-3M
ACHN = tested on: ACHN
SF-268 = tested on: SF-268
SN12C = tested on: SN12C
OVCAR-3 = tested on: OVCAR-3
OVCAR-8 = tested on: OVCAR-8
U-251 = tested on: U-251
NCI-H226 = tested on: NCI-H226
MOLT-4 = tested on: MOLT-4
A549 = tested on: A549
K562 = tested on: K562
OVCAR-5 = tested on: OVCAR-5
M14 = tested on: M14
SNB-75 = tested on: SNB-75

SMILES	GI50 (HCT-15) [µM]	GI50 (UACC-257)	GI50 (NCI-H522)	GI50 (TK-10)	GI50 (SW-620)	GI50 (Malme-3M)	GI50 (ACHN)	GI50 (SF-268)	GI50 (SN12C)	GI50 (OVCAR-3)	GI50 (OVCAR-8)	GI50 (U-251)	GI50 (NCI-H226)	GI50 (MOLT-4)	GI50 (A549)	GI50 (K562)	GI50 (OVCAR-5)	GI50 (M14)	GI50 (SNB-75)
OCc1ccc2[n+](c1)CCC1c3ccccc3NC21 (centres undefined)	> 300	283 µM (inactive)	> 300 µM (inactive)	> 300 µM (inactive)	> 300 µM (inactive)	75.5 µM (inactive)	> 300 µM (inactive)	167 µM (inactive)	> 300 µM (inactive)	240 µM (inactive)	> 300 µM (inactive)	> 300 µM (inactive)	> 300 µM (inactive)	> 300 µM (inactive)	> 300 µM (inactive)	> 300 µM (inactive)	–	–	–
CN1CCc2c1nc(-c1ccc([N+](=O)[O-])cc1)c1c2N(C)CC1	99.5	> 100 µM (inactive)	–	> 100 µM (inactive)	> 100 µM (inactive)	> 100 µM (inactive)	> 100 µM (inactive)	> 100 µM (inactive)	> 100 µM (inactive)	8.15 µM (inactive)	> 100 µM (inactive)	> 100 µM (inactive)	–	91.2 µM (inactive)	> 100 µM (inactive)	46 µM (inactive)	> 100 µM (inactive)	77.6 µM (inactive)	> 100 µM (inactive)
Cc1c(-c2coc(-c3ccccc3)n2)c(=O)n(-c2ccccc2)n1C	> 100	49.7 µM (inactive)	29.1 µM (inactive)	> 100 µM (inactive)	37.8 µM (inactive)	98.6 µM (inactive)	> 100 µM (inactive)	> 100 µM (inactive)	> 100 µM (inactive)	> 100 µM (inactive)	44.6 µM (inactive)	> 100 µM (inactive)	94.4 µM (inactive)	25.6 µM (inactive)	> 100 µM (inactive)	–	> 100 µM (inactive)	> 100 µM (inactive)	> 100 µM (inactive)
CCCCOCCOCCOC1=C(Cl)C(=O)c2c(O)ccc(O)c2C1=O	0.388	0.766 µM (active)	–	1.32 µM (inactive)	0.283 µM (active)	1.46 µM (inactive)	1.59 µM (inactive)	0.759 µM (active)	1.61 µM (inactive)	0.877 µM (active)	1.37 µM (inactive)	1.67 µM (inactive)	1.79 µM (inactive)	0.0138 µM (active)	1.85 µM (inactive)	0.0419 µM (active)	2.52 µM (inactive)	0.161 µM (active)	0.382 µM (active)
COc1cccc(NC(=S)Nn2c(C)nc3ccccc3c2=O)c1	> 100	> 100 µM (inactive)	> 100 µM (inactive)	> 100 µM (inactive)	> 100 µM (inactive)	> 100 µM (inactive)	> 100 µM (inactive)	> 100 µM (inactive)	> 100 µM (inactive)	–	> 100 µM (inactive)	> 100 µM (inactive)	80.2 µM (inactive)	> 100 µM (inactive)	> 100 µM (inactive)	> 100 µM (inactive)	> 100 µM (inactive)	> 100 µM (inactive)	> 100 µM (inactive)
Cc1cc2c(=O)n(-c3ccc(F)cc3)c(C)nc2c(C(=O)O)c1C	> 100	> 100 µM (inactive)	–	> 100 µM (inactive)	> 100 µM (inactive)	> 100 µM (inactive)	> 100 µM (inactive)	> 100 µM (inactive)	> 100 µM (inactive)	> 100 µM (inactive)	> 100 µM (inactive)	> 100 µM (inactive)	> 100 µM (inactive)	> 100 µM (inactive)	> 100 µM (inactive)	> 100 µM (inactive)	> 100 µM (inactive)	> 100 µM (inactive)	> 100 µM (inactive)
COc1ccc2c(c1)C/C(=C\c1ccc(O)c(OC)c1)C2=O	> 100	–	–	> 100 µM (inactive)	> 100 µM (inactive)	–	> 100 µM (inactive)	> 100 µM (inactive)	> 100 µM (inactive)	> 100 µM (inactive)	> 100 µM (inactive)	> 100 µM (inactive)	> 100 µM (inactive)	> 100 µM (inactive)	> 100 µM (inactive)	> 100 µM (inactive)	> 100 µM (inactive)	> 100 µM (inactive)	46 µM (inactive)
CC(C)c1cccc(C(C)C)c1NC(=O)C(=O)C(C(=O)c1ccccc1-c1ccccc1)C1OC(=O)c2ccccc21 (centres undefined)	18.4	12.6 µM (inactive)	15.5 µM (inactive)	26.5 µM (inactive)	19.9 µM (inactive)	14.8 µM (inactive)	32.3 µM (inactive)	21.7 µM (inactive)	20.8 µM (inactive)	–	13.7 µM (inactive)	12.8 µM (inactive)	> 10 µM (inactive)	11.6 µM (inactive)	28 µM (inactive)	21.4 µM (inactive)	18.5 µM (inactive)	–	–
CCOC1CC2OC(=O)C1C=C2C(=O)OC (centres undefined)	27.7	27.7 µM (inactive)	12 µM (inactive)	37.8 µM (inactive)	21.9 µM (inactive)	20.5 µM (inactive)	27.8 µM (inactive)	28.9 µM (inactive)	–	28.4 µM (inactive)	–	50.1 µM (inactive)	32.7 µM (inactive)	17.4 µM (inactive)	> 100 µM (inactive)	25.8 µM (inactive)	> 100 µM (inactive)	18.5 µM (inactive)	–
CCN(CC)C(=O)C(C)n1cc(C)c(=O)[nH]c1=O (centres undefined)	> 100	–	> 100 µM (inactive)	> 100 µM (inactive)	> 100 µM (inactive)	> 100 µM (inactive)	> 100 µM (inactive)	> 100 µM (inactive)	> 100 µM (inactive)	> 100 µM (inactive)	> 100 µM (inactive)	> 100 µM (inactive)	–	> 100 µM (inactive)	> 100 µM (inactive)	> 100 µM (inactive)	> 100 µM (inactive)	> 100 µM (inactive)	15.1 µM (inactive)
NNC(=O)C(=O)N/N=C(\CCCC(=O)Nc1ccc(Cl)cc1)CC(=O)c1ccc(F)cc1	–	> 100 µM (inactive)	–	> 100 µM (inactive)	> 100 µM (inactive)	> 100 µM (inactive)	17.8 µM (inactive)	> 100 µM (inactive)	> 100 µM (inactive)	> 100 µM (inactive)	> 100 µM (inactive)	> 100 µM (inactive)	> 100 µM (inactive)	> 100 µM (inactive)	> 100 µM (inactive)	–	> 100 µM (inactive)	51.3 µM (inactive)	> 100 µM (inactive)
CC1CC(=O)CC[C@@H]1OCc1ccccc1 (some centres undefined)	> 100	> 100 µM (inactive)	–	> 100 µM (inactive)	> 100 µM (inactive)	> 100 µM (inactive)	> 100 µM (inactive)	> 100 µM (inactive)	> 100 µM (inactive)	> 100 µM (inactive)	> 100 µM (inactive)	> 100 µM (inactive)	–	54.3 µM (inactive)	> 100 µM (inactive)	58.1 µM (inactive)	> 100 µM (inactive)	> 100 µM (inactive)	> 100 µM (inactive)
CCc1cccc(C)c1NC(=O)CCc1nnc(S)[nH]1	> 100	> 100 µM (inactive)	> 100 µM (inactive)	> 100 µM (inactive)	> 100 µM (inactive)	> 100 µM (inactive)	> 100 µM (inactive)	> 100 µM (inactive)	> 100 µM (inactive)	> 100 µM (inactive)	> 100 µM (inactive)	> 100 µM (inactive)	> 100 µM (inactive)	> 100 µM (inactive)	> 100 µM (inactive)	> 100 µM (inactive)	> 100 µM (inactive)	> 100 µM (inactive)	–
Cc1nc(-n2nc(-c3ccccc3)cc2-c2ccccc2)sc1C(=O)/C=C/c1ccccc1	> 100	> 100 µM (inactive)	33.1 µM (inactive)	> 100 µM (inactive)	59 µM (inactive)	> 100 µM (inactive)	> 100 µM (inactive)	> 100 µM (inactive)	> 100 µM (inactive)	81.1 µM (inactive)	> 100 µM (inactive)	> 100 µM (inactive)	–	31.8 µM (inactive)	75.3 µM (inactive)	49.8 µM (inactive)	> 100 µM (inactive)	–	6.58 µM (inactive)
CCOP(=O)(C/C(O)=C1\C(=O)C(CCCCNC(=O)OC(C)(C)C)N(Cc2ccccc2)C1=O)OCC (centres undefined)	–	> 100 µM (inactive)	1.12 µM (inactive)	> 100 µM (inactive)	–	> 100 µM (inactive)	> 100 µM (inactive)	> 100 µM (inactive)	> 100 µM (inactive)	> 100 µM (inactive)	> 100 µM (inactive)	> 100 µM (inactive)	> 100 µM (inactive)	78.7 µM (inactive)	> 100 µM (inactive)	> 100 µM (inactive)	> 100 µM (inactive)	> 100 µM (inactive)	> 100 µM (inactive)
CC1CCC(=O)NCCCCC(=O)N1 (centres undefined)	–	> 100 µM (inactive)	> 100 µM (inactive)	> 100 µM (inactive)	> 100 µM (inactive)	> 100 µM (inactive)	> 100 µM (inactive)	> 100 µM (inactive)	> 100 µM (inactive)	> 100 µM (inactive)	> 100 µM (inactive)	> 100 µM (inactive)	> 100 µM (inactive)	> 100 µM (inactive)	> 100 µM (inactive)	> 100 µM (inactive)	> 100 µM (inactive)	> 100 µM (inactive)	43.3 µM (inactive)
CCN(CC)CCNC(=O)c1cccc2cc3ccccc3nc12	4.47	–	–	4.79 µM (inactive)	3.49 µM (inactive)	–	3.45 µM (inactive)	6.84 µM (inactive)	5.18 µM (inactive)	11.6 µM (inactive)	6 µM (inactive)	5.01 µM (inactive)	4.18 µM (inactive)	2.96 µM (inactive)	3.56 µM (inactive)	3.72 µM (inactive)	6.21 µM (inactive)	5.9 µM (inactive)	7.71 µM (inactive)
